Reference: PMC12598698, “Synergistic Cancer Metabolic Therapy via Co-Delivery of 3‑Bromopyruvate and Temozolomide with a Supramolecular Shuttle” (ACS Applied Materials & Interfaces, 2025)
Where “and” joins values, the source holds several entries; their conditions need not be identical. Equal entries are not always repeated.

Legend:
[1] = system: mitochondria isolated from rat brain; experiment: EPR analysis of ROS production upon mitochondria respiration (Mito-TEMPO); format: biochemical; conditions: succinate without rotenone, 37 °C, 8 min preincubation
Experimental: Investigation of the redox status in mitochondria was performed using the Mito-TEMPO paramagnetic spin probe, which is a mitochondria-penetrating nitroxide radical that allows evaluation of the level of ROS (mainly superoxides) produced during respiration. The same protocol as described in the previous subsection was followed with the addition of Mito-TEMPO (0.1 mM) during the preincubation with BrP, NF, or NF-Br. In this case succinate was used as a respiratory substrate in the absence of rotenone in order to allow the formation of ROS via the electron reverse from complex II to complex I. At predetermined time intervals, 20 μL of each sample was loaded into glass capillaries and flame-sealed. To guarantee thermal stability, the sealed capillaries were subsequently placed inside a standard 4 mm quartz EPR-sample tube that had been lightly lubricated with silicone oil. As described in a previous subsection, a 9 GHz Bruker Elexsys E500 spectrometer was used to record the EPR spectra. During acquisition, the sample temperature was maintained at 37 °C by directing thermostated nitrogen gas through a quartz dewar. Mito-TEMPO EPR signals were analyzed by double integration using the Bruker software package.

[2] = system: mitochondria isolated from rat brain; experiment: Mitochondrial respiration (Clark-type electrode); format: biochemical; conditions: 5 μM, 8 min preincubation, 37 °C, ADP 300 μM
Experimental: Male Wistar rats (275–300 g) were obtained from Envigo RMS Srl (Udine, Italy). Animals were housed in a temperature-controlled environment (22 °C) under a 12:12 h light–dark cycle, with food and water available ad libitum. All procedures were conducted in strict accordance with European guidelines for the care and use of laboratory animals. Every attempt was made to reduce the suffering and discomfort experienced by the animals. Experimental protocols were approved by the Committee on the Ethics of Animal Experiments of the University of Naples Federico II (Italy) and the Italian Minister of Health (protocol number 776/2021-Pr). Rats were anesthetized by ip injection of tiopental (40 mg/100 body weight) and euthanized by decapitation. Brains were immediately excised, weighed, and processed for mitochondrial isolation, following the method described by Sumbalova et al. Briefly, brain tissues were immersed in ice-cold isolation buffer (330 mM sucrose, 10 mM Tris-HCl, 1 mM EDTA, and 2.5 g/L fatty acid-free BSA, pH 7.4) and homogenized using a Potter-Elvehjem homogenizer. […] Mitochondrial respiration rate was measured polarographically using a Clark-type electrode (Clark-type electrode, Oxygraph system, Hansatech Instruments Ltd., UK). […]

U-87 MG cells (2D) [3] = experiment: 2D U-87 cell viability assay (PrestoBlue); format: cell-based, human
Experimental: Cells were seeded in 48-well plates at approximately 3 × 10^4 cells per well in DMEM culture medium supplemented with 10% FBS. U-87 MG cell lines from human brain were initially cultured in 25 cm^2 flasks, using DMEM supplemented with FBS 10%, P/S 2%, and L/GLUT 2 mM, in a humidified incubator (37 °C/5% CO2). After 24 h, once cells adhered, they were treated in parallel with NF-BrP (BrP, 5 μM), NF-BrP-TMZ (BrP and TMZ, 5 μM), and BrP at concentrations of 30, 50, 100, and 150 μM, for 24, 48, and 72 h. Untreated cells served as the controls. All experiments were performed under standard cell culture conditions (95% relative humidity, 5% CO2, 37 °C). At the end of each incubation time, cell viability was assessed using the PrestoBlue assay (ThermoFisher Scientific), according to the manufacturer’s protocol. Cells were incubated with the reagent for 1 h, and absorbance was obtained at 570 nm with 600 nm as the reference wavelength with a BioTek Synergy HT microplate reader. Results are expressed as the percentage of viable cells relative to the untreated controls.

U-87 MG cells (2D) [4] = conditions: highest tested concentration 250 μM, 72 h; ref previous work; cited from earlier work
Experimental: Combining drugs with different mechanisms of action targeting distinct cellular pathways can help overcome resistance and produce a synergistic effect, thereby enhancing the overall anticancer efficacy. The combined cytotoxic effect of the nanofiber NF-TMZ-BrP, cofunctionalized with BrP and TMZ (both at 5 μM), was evaluated in 2D and 3D-U87 cells at 24, 48, and 72 h. […] After 72 h, the cytotoxic effect became more pronounced, with appro ...

SMILES | effect on mitochondrial ROS production (slope of mito-TEMPO decay) [1] | inhibition of ADP-stimulated respiration, pyruvate + malate [2] | inhibition of ADP-stimulated respiration, succinate + rotenone [2] | reduction of U-87 cell viability by free BrP at 150 μM (U-87 MG cells (2D) [3]; free drug 150 μM, prolonged exposure) | concentrations at which a decrease in U-87 cell viability is observed (U-87 MG cells (2D) [3]; free drug, 24, 48 and 72 h) | reduction in cell viability by free TMZ (U-87 MG cells (2D) [4]) [%]
O=C(O)C(=O)CBr [BrP, 3-bromopyruvic acid] | reduces the slope in a dose-dependent manner | about 50% | about 50% | no more than 20% | 50 to 150 µM and > 50 µM | 
Cn1nnc2c(C(N)=O)ncn2c1=O [TMZ, temozolomide] |  |  |  |  |  | 40
